Data as given in US8722887B2, “Sulfonylpyrazole and sulfonylpyrazoline carboxamidine derivatives as 5-HT6 antagonists” (Abbvie Bahamas, Ltd., priority 2006, dated 2014).
Like-named read-outs stand apart in the source and are kept apart here.

Key:
[1] = Sleight, 1998; cited from earlier work
5-HT6 receptor [2] = target: T1, 5-HT6 receptor (Homo sapiens, UniProt P50406); details: 5-HT6 receptor (Sleight, 1998); cited from earlier work
5-HT6 receptor [3] = target: T1, 5-HT6 receptor; test: In vitro functional activity (antagonism) on human 5-HT6 receptors, CHO-human-5HT6-Aequorin assay; format: cell-based; set-up: host or cells: CHO/Gα16/mtAEQ/h5HT6-A1 (CHO AequoScreen recombinant cell line)
5-HT6 receptor [4] = target: T1, 5-HT6 receptor; test: In vitro affinity for human 5-HT6 receptors, [3H]-LSD binding in CHO cell membranes; set-up: host or cells: CHO/Gα16/mtAEQ/h5HT6-A1 (CHO AequoScreen recombinant cell line); details: [3H]-LSD 5.0 nM, membranes of CHO cells transfected with human 5-HT6; read-out: 5-HT6 pKi (converted)
[5] = Rogers, 1999; cited from earlier work
[6] = antagonism of 10^-8 M α-methylserotonin induced luminescence, CHO-human-5HT6-Aequorin cells, read-out: 5-HT6 pA2 (converted)

T1 sequence (P50406 whole entry): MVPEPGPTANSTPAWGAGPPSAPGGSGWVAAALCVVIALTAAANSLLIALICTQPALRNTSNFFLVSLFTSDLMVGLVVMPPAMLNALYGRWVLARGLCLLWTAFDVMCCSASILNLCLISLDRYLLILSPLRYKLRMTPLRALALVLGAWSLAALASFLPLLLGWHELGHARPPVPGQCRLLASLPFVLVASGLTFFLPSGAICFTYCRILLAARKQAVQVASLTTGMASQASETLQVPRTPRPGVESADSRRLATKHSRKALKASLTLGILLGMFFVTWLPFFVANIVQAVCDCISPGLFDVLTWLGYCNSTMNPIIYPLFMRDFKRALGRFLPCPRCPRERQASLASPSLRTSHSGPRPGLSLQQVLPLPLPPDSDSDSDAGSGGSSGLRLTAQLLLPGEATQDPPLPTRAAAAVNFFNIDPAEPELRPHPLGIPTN

melting point	Ki (5-HT6 receptor [4])	SMILES	further results
		CNc1cc(NS(=O)(=O)c2ccc(N)cc2)cc(NC)n1 [Ro 63-0563]	pharmacokinetics [1]: poor; Ki (5-HT6 receptor [2]): 0.012 µM
139 to 140 °C	0.0794 µM	CCC1CN(/C(N)=N/S(=O)(=O)c2c(Cl)nc3sccn23)N=C1C (centres unmarked) [compound 130]	Kb (5-HT6 receptor [3]; [6]): 0.00631 µM
162 to 173 °C	0.2 µM	CCC1C=NN(/C(=N/S(=O)(=O)c2ccccc2Cl)N2CCNCC2)C1 (centres unmarked) [compound 16]	
146 to 147 °C	0.00158 µM	CCN/C(=N\S(=O)(=O)c1c(Cl)nc2sccn12)N1CC2(C=N1)CCCC2 [compound 133]	Kb (5-HT6 receptor [3]; [6]): 0.000158 µM
114 to 115 °C		CCC1C=NN(/C(N)=N/S(=O)(=O)c2ccc(Cl)cc2)C1 (centres unmarked) [compound 30]	Kb (5-HT6 receptor [3]; [6]): 1.26 µM
138 to 140 °C	0.631 µM	CCN/C(=N\S(=O)(=O)c1ccccc1Cl)N1CCC(c2ccccc2)=N1 [compound 138]	
165 to 166 °C	0.158 µM	CC1=NN(/C(N)=N/S(=O)(=O)c2cccc(Cl)c2)CC1c1ccccc1 (centres unmarked) [compound 141]	
		COc1ccc(NS(=O)(=O)c2sc3ccc(Cl)cc3c2C)cc1N1CCNCC1 [SB-271046]	performance in the Morris water maze [5]: improved performance
184 °C		N/C(=N\S(=O)(=O)c1ccc(Cl)s1)N1CC2(C=N1)CCCC2 [compound 107]	
124 to 126 °C		CCN/C(=N\S(=O)(=O)c1cccc(Cl)c1)N1N=CCC1c1ccccc1 (centres unmarked) [compound 143]	
179 to 184 °C		CN1CCN(/C(=N\S(=O)(=O)c2ccc(F)cc2)N2CCC(c3ccc(Cl)cc3)=N2)CC1 [compound 136]	
91 to 93 °C		CCN/C(=N\S(=O)(=O)c1ccccc1Cl)N1CCC(CC)=N1	
		CNc1cc(NS(=O)(=O)c2ccc(N)cc2)nc(NC)n1 [Ro 04-6790]	pharmacokinetics [1]: poor; Ki (5-HT6 receptor [2]): 0.05 µM
176 to 178 °C		CCC1C=NN(/C(N)=N/S(=O)(=O)c2c(Cl)nc3sccn23)C1 (single isomer, unassigned; (-)) [(−)-123]	

SMILES	melting point	Ki (5-HT6 receptor [4])	further results
CCN/C(=N\S(=O)(=O)c1ccccc1Cl)N1N=CCC1c1ccccc1 (centres unmarked) [compound 142]	164 to 166 °C		Kb (5-HT6 receptor [3]): 0.0501 µM
